Data taken from patent US5371077A, “Side chain derivatized 15-oxygenated sterols, methods of using them and a process for preparing them” (William Marsh Rice University, priority 1992, dated 1994).

Key:
HMG-CoA reductase = assay: Effects of sterols on HMG-CoA reductase activity in CHO-K1 cells; format: cell-based; conditions: 4 hours
Method: Effects of side chain derivatized 15-oxygenated sterols on HMG-CoA reductase activity in CHO-K1 cells
The effects of the sterols on HMG-CoA reductase activity were determined on CHO-K1 cells. The cells were obtained from the American Type Culture Collection (Rockville, Md.). (3RS)-[3-^14 C]HMG-CoA (56 mCi per mmol) and (3RS)-[2-^3 H]mevalonolactone (176 mCi per mmol) were purchased from Amersham Corporation (Arlington Heights, Ill.). Lux tissue culture plasticware was from Miles Scientific (Elkhart, Ind.). Trypsin was obtained from Gibco Laboratories (Grand Island, N.Y.) and Ham's F12 medium, Proc. Natl. Acad. Sci. U.S.A., 53, 288-293 (1965), and phosphate buffered saline (PBS; KCl, 2.7 mM; KH2 PO4, 1.2 mM; NaCl, 137 mM; and Na2 HPO4, 8.1 mM) were obtained from Irvine Scientific (Irvine, Calif.). Fetal calf serum was purchased from Whittaker M.A. Bioproducts (Elkhart, Ind.).
For cell culture experiments, the sterols and C24 acid were added as ethanolic solutions to Ham's F12 medium supplemented with 5% delipidated fetal calf serum (lipid-deficient medium) and allowed to equilibrate for at least 6 hours at room temperature prior to storage at 4° C. Protein in detergent-solubilized extracts of cultured cells was assayed by the Peterson modification, Anal. Biochem., 83, 346-356, of the method of Lowry et al., J. Biol. Chem, 193, 265-275.
The CHO-K1 cells were maintained in Ham's F12 medium supplemented with 5% fetal calf serum (lipid-rich medium) in a humidified atmosphere of 5% CO2 -95% air at 37° C. Each experiment was initiated by inoculating […] cells into 100-mm dishes containing the lipid-rich medium (10 ml), followed by incubating for 48 hours. The medium was aspirated and, after rinsing the plates with PBS (10 ml), the cells were incubated for 18 hours in lipid-deficient media (10 ml). The cells were then incubated with fresh lipid-deficient media (10 ml) containing various concentrations of the 15-oxygenated sterols (from 0.0 μM to 2.5 μM) for 4 hours. Cells were harvested by scraping, and detergent-solubilized cell preparations were obtained for assay of HMG-CoA reductase activity using the method of Brown, Dana and Goldstein, J. Biol. Chem, 249, 789-796. Replicate assays (n=3) were carried out as described by Pinkerton et al., J. Biol. Chem, 257, 1929-1936, except that the specific activity of (3RS)-[3-^14 C]HMG-CoA was 20,000 dpm per nmol.

[1] = Effects of dietary administration of F7-15-ketosterol to rats: serum sterols; format: in vivo, rats (Sprague-Dawley, male); conditions: rat
From the text: Effects of dietary administration of side chain derivatized 15-oxygenated sterols to rats
Male rats (100-140 g) of the Sprague-Dawley strain were obtained from Harlan Sprague-Dawley (Houston, Tex.) and housed in pairs for 6 days on a light (6:00 AM-6:00 PM)--dark cycle and fed a ground basal diet (Purina Formulab 5008) and water ad libitum. The animals were then divided into groups of 8 animals each, such that the mean values of serum cholesterol and body weight were approximately the same. The animals were then housed individually and were provided diet and water ad libitum. Blood for serum sterol concentrations was obtained at ^~ 8:00 AM from tail vein on days 5 and 9.
The experiment involved administration of 3β-hydroxy-25,26,26,26,27,27,27-heptafluoro-5α-cholest-8(14)-en-15-one (F7 -15-ketosterol) in basal diet as utilized previously in Schroepfer et al., Blochem. Biophys. Res. Commun., 78, 1227-233 (1977). 3β-Hydroxy-25,26,26,26,27,27,27-heptafluoro-5α-cholest-8(14)-en-15-one was administered at levels of 0.025%, 0.05%, 0.075, and 0.10% (by weight) in basal diet. Control rats received basal diet containing no added sterol.
Serum cholesterol was measured by two methods. Day 0 levels were determined using a commercial assay kit ("Single Vial"; Boehringer Mannheim Diagnostics, catalog no. 236691). This methodology could not be applied to the determination of serum cholesterol in serum samples of rats treated with 3β-hydroxy-25,26,26,26,27,27,27-heptafluoro-5α-cholest-8(14)-en-15-one due to the presence of another sterol which also acted as a substrate for cholesterol oxidase. Accordingly, cholesterol levels in serum were determined by gas chromatography (GC). Routine capillary GC analyses of sterols in serum were made on a 0.1 μm Rtx 1701 column (15 m×0.25 mm ID; 14% cyanopropylphenyl, 86% methyl polysiloxane; Restek Corp., Bellefonte, Pa.). Stigmasterol was used as an internal standard. In addition, recovery of sterol after saponification and extraction was monitored through the use of an internal standard of [7(n)-^3 H]cholesteryl oleate. Routine saponification of sample (100 μl) involved treatment with 10% KOH in ethanol (500 μl) followed by extraction with hexane (3×1.5 ml). After evaporation to dryness under nitrogen, the samples were treated with BSTFA-pyridine (1:1, 200 μl) for 1 hour at room temperature under nitrogen. After evaporation to dryness under nitrogen, the silylated material was dissolved in hexane (500 μl) and aliquots (1 μl) were subjected to GC analysis.

Structure (SMILES) | HMG-CoA reductase activity (% of control activity) (HMG-CoA reductase; sterol concentration 0.1 μM) | HMG-CoA reductase activity (% of control activity) (HMG-CoA reductase; sterol concentration 0.25 μM) | HMG-CoA reductase activity (% of control activity) (HMG-CoA reductase; sterol concentration 0.5 μM) | HMG-CoA reductase activity (% of control activity) (HMG-CoA reductase; sterol concentration 1.0 μM) | HMG-CoA reductase activity (% of control activity) (HMG-CoA reductase; sterol concentration 2.5 μM) | Serum Sterols: Cholesterol ([1]; 0.025% in diet, day 5, control 2.60 ± 0.12) [mM] | Serum Sterols: Cholesterol ([1]; 0.025% in diet, day 9, control 2.62 ± 0.06) [mM] | Serum Sterols: Cholesterol ([1]; 0.050% in diet, day 5, control 2.60 ± 0.12) [mM] | Serum Sterols: Cholesterol ([1]; 0.050% in diet, day 9, control 2.62 ± 0.06) [mM] | Serum Sterols: Cholesterol ([1]; 0.075% in diet, day 5, control 2.60 ± 0.12) [mM] | Serum Sterols: Cholesterol ([1]; 0.075% in diet, day 9, control 2.62 ± 0.06) [mM] | Serum Sterols: Cholesterol ([1]; 0.100% in diet, day 5, control 2.60 ± 0.12) [mM] | Serum Sterols: Cholesterol ([1]; 0.100% in diet, day 9, control 2.62 ± 0.06) [mM]
CC(C)C(O)CC[C@@H](C)[C@H]1CC(=O)C2=C3CC[C@H]4C[C@@H](O)CC[C@]4(C)[C@H]3CC[C@@]21C (stereo partly drawn) [IV, 3β,24-dihydroxy-5α-cholest-8(14)-en-15-one] | 63.4 % of control activity | 33.5 % of control activity | 32.2 % of control activity | 34.2 % of control activity | 21.5 % of control activity |  |  |  |  |  |  |  | 
C[C@H](CCC(=O)O)[C@H]1CC(=O)C2=C3CC[C@H]4C[C@@H](O)CC[C@]4(C)[C@H]3CC[C@@]21C [I, 3β-hydroxy-15-keto-5α-chol-8(14)-en-24-oic acid] | 88.5 % of control activity | 77.3 % of control activity | 69.9 % of control activity | 65.0 % of control activity | 45.6 % of control activity |  |  |  |  |  |  |  | 
C[C@H](CCCC(F)(C(F)(F)F)C(F)(F)F)[C@H]1CC(=O)C2=C3CC[C@H]4C[C@@H](O)CC[C@]4(C)[C@H]3CC[C@@]21C [VI, 3β-hydroxy-25,26,26,26,27,27,27-heptafluoro-5α-cholest-8(14)-en-15-one] | 68.3 % of control activity | 49.1 % of control activity | 35.6 % of control activity | 29.0 % of control activity | 22.2 % of control activity | 2.02 ± 0.12 | 2.10 ± 0.10 | 2.06 ± 0.07 | 1.83 ± 0.07 | 1.76 ± 0.05 | 1.76 ± 0.12 | 1.97 ± 0.09 | 1.90 ± 0.10
CC(C)=CCC[C@@H](C)[C@H]1CC(=O)C2=C3CC[C@H]4C[C@@H](O)CC[C@]4(C)[C@H]3CC[C@@]21C [II, 3β-hydroxy-5α-cholesta-8(14),24-dien-15-one] | 60.5 % of control activity | 67.0 % of control activity | 51.1 % of control activity | 40.0 % of control activity | 35.2 % of control activity |  |  |  |  |  |  |  | 
C[C@H](CCCN(C)C)[C@H]1CC(=O)C2=C3CC[C@H]4C[C@@H](O)CC[C@]4(C)[C@H]3CC[C@@]21C [V, 3β-hydroxy-24-dimethylamino-5α-chol-8(14)-en-15-one] | 87.1 % of control activity | 85.4 % of control activity | 73.3 % of control activity | 53.5 % of control activity | 35.0 % of control activity |  |  |  |  |  |  |  | 
C[C@H](CCCC(C)(C)O)[C@H]1CC(=O)C2=C3CC[C@H]4C[C@@H](O)CC[C@]4(C)[C@H]3CC[C@@]21C [III, 3β,25-dihydroxy-5α-cholest-8(14)-en-15-one] | 66.4 % of control activity | 56.2 % of control activity | 50.2 % of control activity | 34.8 % of control activity | 23.7 % of control activity |  |  |  |  |  |  |  | 
